One experiment addresses AktK (Homo sapiens, UniProt P31749). As to the kind of experiment: Luciferase-coupled chemiluminescence kinase assay (ATP consumption). It is filed as biochemical. To be noted: read-out: AKT-1 IC50. An outline of the steps:
(§1)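 Activity is read as ATP depletion: luciferase-luciferin reagent added after a 3 h ambient-temperature kinase reaction, with total ATP use limited to 25-60%. Before ATP addition, 2.5-5 nM kinase and compound were preincubated 30 min in Tris pH 7.5/MgCl2/TX-100/DTT buffer; […].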

The next experiment concerns the target p70S6K (Homo sapiens, UniProt P23443). The description is as above. It is filed as biochemical. The method, boiled down:
as §1

The structures appear in SMILES notation.

Chain of AktK (P31749 whole entry): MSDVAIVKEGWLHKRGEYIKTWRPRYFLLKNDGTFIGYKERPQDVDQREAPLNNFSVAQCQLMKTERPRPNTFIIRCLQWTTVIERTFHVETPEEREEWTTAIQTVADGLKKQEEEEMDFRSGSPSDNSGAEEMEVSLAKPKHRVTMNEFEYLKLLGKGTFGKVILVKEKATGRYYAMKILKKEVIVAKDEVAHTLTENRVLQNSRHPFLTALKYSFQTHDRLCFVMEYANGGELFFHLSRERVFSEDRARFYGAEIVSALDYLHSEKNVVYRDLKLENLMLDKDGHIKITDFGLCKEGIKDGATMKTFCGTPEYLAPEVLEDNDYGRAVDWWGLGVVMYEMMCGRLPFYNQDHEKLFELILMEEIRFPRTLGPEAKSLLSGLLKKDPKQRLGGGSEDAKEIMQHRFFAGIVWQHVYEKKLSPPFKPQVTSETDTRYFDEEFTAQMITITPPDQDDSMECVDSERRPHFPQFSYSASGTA
Chain of p70S6K (P23443 whole entry): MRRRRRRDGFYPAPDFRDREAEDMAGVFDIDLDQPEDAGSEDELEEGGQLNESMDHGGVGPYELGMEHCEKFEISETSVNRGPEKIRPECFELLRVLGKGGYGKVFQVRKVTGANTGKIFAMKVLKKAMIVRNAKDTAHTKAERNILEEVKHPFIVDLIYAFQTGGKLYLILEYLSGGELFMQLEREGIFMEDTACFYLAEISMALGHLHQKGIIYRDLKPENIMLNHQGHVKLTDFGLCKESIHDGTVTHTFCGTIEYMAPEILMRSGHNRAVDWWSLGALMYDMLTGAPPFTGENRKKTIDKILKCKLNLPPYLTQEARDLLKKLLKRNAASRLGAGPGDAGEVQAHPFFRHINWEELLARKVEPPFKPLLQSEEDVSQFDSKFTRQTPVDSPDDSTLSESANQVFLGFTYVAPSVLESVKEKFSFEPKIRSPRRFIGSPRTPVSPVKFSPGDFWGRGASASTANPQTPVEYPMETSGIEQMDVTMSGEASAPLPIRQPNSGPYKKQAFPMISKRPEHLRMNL

Consider `Cc1ccc(Cl)cc1N1CCN(c2ncnc3[nH]nc(C(F)(F)F)c23)CC1` [Entry 348, 4-[4-(5-chloro-2-methylphenyl)piperazin-1-yl]-3-(trifluoromethyl)-1H-pyrazolo[3,4-d]pyrimidine], for which the IC50 (in general, the concentration that inhibits the measured activity by half) is 1 to 10 µM at AktK and under 0.1 µM against p70S6K.

With `CCc1n[nH]c2ncnc(N3CCN(c4cccc(Cl)c4)CC3C(=O)OC)c12` (stereo not drawn) [Entry 349, methyl 4-(3-chlorophenyl)-1-(3-ethyl-1H-pyrazolo[3,4-d]pyrimidin-4-yl)piperazine-2-carboxylate], the half-maximal inhibitory concentration (IC50) on AktK is at least 10 µM; at p70S6K it was 1 to 10 µM.

As to `CCc1n[nH]c2ncnc(N3CCN(c4ccc(OCCN5CCCCC5)c(Cl)c4)CC3)c12` [Entry 350, 4-(4-{3-chloro-4-[(2-piperidin-1-ylethyl)oxy]phe-nyl}piperazin-1-yl)-3-ethyl-1H-pyrazolo[3,4-d]pyrimidine], the figures for the concentration for half-maximal inhibition (IC50) at AktK and against p70S6K were at least 10 µM and 1 to 10 µM, respectively.

As for `Cc1ccc(Cl)cc1N1CCN(c2ncnc3[nH]nc(C(C)C)c23)CC1` [Entry 351, 4-[4-(5-chloro-2-methylphenyl)piperazin-1-yl]-3-(1-methylethyl)-1H-pyrazolo[3,4-d]pyrimidine], the IC50 on AktK was 1 to 10 µM; on p70S6K, under 0.1 µM.

Turning to `CCc1n[nH]c2ncnc(N3CCN(c4cccc(Cl)c4)C(C(=O)O)C3)c12` (stereo not drawn) [Entry 352, 1-(3-chlorophenyl)-4-(3-ethyl-1H-pyrazolo[3,4-d]pyrimidin-4-yl)piperazine-2-carboxylic acid], the IC50 at AktK is at least 10 µM; at p70S6K it was 0.1 to 1 µM.

For `CCc1n[nH]c2ncnc(N3CCN(c4cccc(Cl)c4)C(C(=O)NC)C3)c12` (stereo not drawn) [Entry 353, 1-(3-chlorophenyl)-4-(3-ethyl-1H-pyrazolo[3,4-d]pyrimidin-4-yl)-N-methylpiperazine-2-carboxamide], the IC50 at AktK was 1 to 10 µM; on p70S6K, 0.1 to 1 µM.

With `Cc1ccc(Cl)cc1N1CCN(c2ncnc3[nH]nc(Cc4ccccc4)c23)CC1` [Entry 354, 4-[4-(5-chloro-2-methylphenyl)piperazin-1-yl]-3-(phenylmethyl)-1H-pyrazolo[3,4-d]pyrimidine], the results for the 50% inhibitory concentration (IC50) on AktK and against p70S6K were 1 to 10 µM and 0.1 to 1 µM, respectively.

On to `COc1ccc(-c2n[nH]c3ncnc(N4CCN(c5cc(Cl)ccc5C)CC4)c23)cc1` [Entry 356, 4-[4-(5-chloro-2-methylphenyl)piperazin-1-yl]-3-[4-(methyloxy)phenyl]-1H-pyrazolo[3,4-d]pyrimidine], for which the half-maximal inhibitory concentration (IC50) at AktK lay within 1 to 10 µM; against p70S6K, 0.1 to 1 µM.

For `Cc1ccc(Cl)cc1N1CCN(c2ncnc3[nH]nc(-c4ccc(F)cc4)c23)CC1` [Entry 357, 4-[4-(5-chloro-2-methylphenyl)piperazin-1-yl]-3-(4-fluorophenyl)-1H-pyrazolo[3,4-d]pyrimidine], the 50% inhibitory concentration (IC50) on AktK lay within 1 to 10 µM; on p70S6K it was 0.1 to 1 µM.

For the compound `Cc1ccc(Cl)cc1N1CCN(c2ncnc3[nH]nc(-c4ccc(Oc5ccccc5)cc4)c23)CC1` [Entry 358, 4-[4-(5-chloro-2-methylphenyl)piperazin-1-yl]-3-[4-(phenyloxy)phenyl]-1H-pyrazolo[3,4-d]pyrimidine], the concentration for half-maximal inhibition (IC50) was in the range of 1 to 10 µM on AktK and 0.1 to 1 µM at p70S6K.

For `CCc1n[nH]c2ncnc(N3CCN(c4cccc(Cl)c4)C(C(=O)NCCN(C)C)C3)c12` (stereo not drawn) [Entry 360, 1-(3-chlorophenyl)-N-[2-(dimethylamino)ethyl]-4-(3-ethyl-1H-pyrazolo[3,4-d]pyrimidin-4-yl)piperazine-2-carboxamide], the IC50 on AktK and on p70S6K was 1 to 10 µM throughout.

As to `CCc1n[nH]c2ncnc(N3CCN(c4cc(Cl)cc(N5CCOCC5)c4C)CC3)c12` [Entry 361, 4-[4-(5-chloro-2-methyl-3-morpholin-4-ylphenyl)piperazin-1-yl]-3-ethyl-1H-pyrazolo[3,4-d]pyrimidine], the IC50 was 1 to 10 µM at AktK and 0.1 to 1 µM on p70S6K.

As to `COc1ccccc1-c1n[nH]c2ncnc(N3CCN(c4cc(Cl)ccc4C)CC3)c12` [Entry 363, 4-[4-(5-chloro-2-methylphenyl)piperazin-1-yl]-3-[2-(methyloxy)phenyl]-1H-pyrazolo[3,4-d]pyrimidine], the IC50 on AktK lay within 1 to 10 µM; against p70S6K it was 0.1 to 1 µM.

Consider `Cc1ccc(Cl)cc1N1CCN(c2ncnc3[nH]nc(-c4ccncc4)c23)CC1` [Entry 364, 4-[4-(5-chloro-2-methylphenyl)piperazin-1-yl]-3-pyridin-4-yl-1H-pyrazolo[3,4-d]pyrimidine], for which the IC50 was 1 to 10 µM on AktK and under 0.1 µM on p70S6K.

`COc1cccc(-c2n[nH]c3ncnc(N4CCN(c5cc(Cl)ccc5C)CC4)c23)c1` [Entry 365, 4-[4-(5-chloro-2-methylphenyl)piperazin-1-yl]-3-[3-(methyloxy)phenyl]-1H-pyrazolo[3,4-d]pyrimidine]: the 50% inhibitory concentration (IC50) on AktK and at p70S6K was 1 to 10 µM each time.

For the compound `Cc1ccc(Cl)cc1N1CCN(c2ncnc3[nH]nc(-c4ccc(C#N)cc4)c23)CC1` [Entry 366, 4-{4-[4-(5-chloro-2-methylphenyl)piperazin-1-yl]-1H-pyrazolo[3,4-d]pyrimidin-3-yl}benzonitrile], the IC50 on AktK and on p70S6K was 1 to 10 µM in each case.

For the compound `CCc1n[nH]c2ncnc(N3CCN(c4cc(Cl)cc(CO)c4OC)CC3)c12` [Entry 367, [5-chloro-3-[4-(3-ethyl-1H-pyrazolo[3,4-d]pyrimidin-4-yl)piperazin-1-yl]-2-(methyloxy)phenyl]methanol], the values for the IC50 on AktK and against p70S6K were 1 to 10 µM and under 0.1 µM, respectively.

For `CCc1n[nH]c2ncnc(N3CCN(c4cc(Cl)cc(C(=O)OC)c4OC)CC3)c12` [Entry 368, methyl 5-chloro-3-[4-(3-ethyl-1H-pyrazolo[3,4-d]pyrimidin-4-yl)piperazin-1-yl]-2-(methyloxy)benzoate], the figures for the IC50 on AktK and on p70S6K were 1 to 10 µM and 0.1 to 1 µM, respectively.

Consider `Cc1ccc(Cl)cc1N1CCN(c2ncnc3[nH]nc(/C=C/C(=O)O)c23)CC1` [Entry 369, (2E)-3-{4-[4-(5-chloro-2-methylphenyl)piperazin-1-yl]-1H-pyrazolo[3,4-d]pyrimidin-3-yl}prop-2-enoic acid], for which the IC50 was 0.1 to 1 µM on AktK and under 0.1 µM on p70S6K.

As to `Cc1ccc(Cl)cc1N1CCN(c2ncnc3[nH]nc(CCC(=O)O)c23)CC1` [Entry 370, 3-{4-[4-(5-chloro-2-methylphenyl)piperazin-1-yl]-1H-pyrazolo[3,4-d]pyrimidin-3-yl}propanoic acid], the figures for the IC50 at AktK and against p70S6K were 1 to 10 µM and under 0.1 µM, respectively.

In the case of `Cc1ccc(Cl)cc1N1CCN(c2ncnc3[nH]nc(CCCO)c23)CC1` [Entry 371, 3-{4-[4-(5-chloro-2-methylphenyl)piperazin-1-yl]-1H-pyrazolo[3,4-d]pyrimidin-3-yl}propan-1-ol], the results for the IC50 at AktK and against p70S6K were 1 to 10 µM and under 0.1 µM, respectively.

In the case of `COC(=O)/C=C/c1n[nH]c2ncnc(N3CCN(c4cc(Cl)ccc4C)CC3)c12` [Entry 372, methyl (2E)-3-{4-[4-(5-chloro-2-methylphenyl)piperazin-1-yl]-1H-pyrazolo[3,4-d]pyrimidin-3-yl}prop-2-enoate], the IC50 on AktK is 1 to 10 µM; against p70S6K it was under 0.1 µM.

`Cc1ccc(Cl)cc1N1CCN(c2ncnc3[nH]nc(-c4ccc(OCCN5CCOCC5)cc4)c23)CC1` [Entry 373, 4-[4-(5-chloro-2-methylphenyl)piperazin-1-yl]-3-{4-[(2-morpholin-4-ylethyl)oxy]phenyl}-1H-pyrazolo[3,4-d]pyrimidine]: the IC50 at AktK and against p70S6K was 1 to 10 µM throughout.

Consider `CCc1n[nH]c2ncnc(N3CCN(c4cc(Cl)cc(C(=O)NCCN(C)C)c4OC)CC3)c12` [Entry 374, 5-chloro-N-[2-(dimethylamino)ethyl]-3-[4-(3-ethyl-1H-pyrazolo[3,4-d]pyrimidin-4-yl)piperazin-1-yl]-2-(methyloxy)benzamide], for which the IC50 on AktK is 1 to 10 µM; against p70S6K, under 0.1 µM.

On to `CCc1n[nH]c2ncnc(N3CCN(c4cc(Cl)cc(C(=O)N5CCN(C)CC5)c4OC)CC3)c12` [Entry 375, 4-(4-{5-chloro-2-(methyloxy)-3-[(4-methylpipera-zin-1-yl)carbonyl]phenyl}piperazin-1-yl)-3-ethyl-1H-pyrazolo[3,4-d]pyrimidine], for which the half-maximal inhibitory concentration (IC50) on AktK is at least 10 µM; against p70S6K, 0.1 to 1 µM.

Take `CCc1n[nH]c2ncnc(N3CCN(c4cc(Cl)cc(C(=O)OCCN(C)C)c4OC)CC3)c12` [Entry 376, 2-(dimethylamino)ethyl 5-chloro-3-[4-(3-ethyl-1H-pyrazolo[3,4-d]pyrimidin-4-yl)piperazin-1-yl]-2-(methyloxy)benzoate]: the half-inhibitory concentration (IC50) was 1 to 10 µM at AktK and under 0.1 µM against p70S6K.

Take `CCc1n[nH]c2ncnc(N3CCN(c4cc(Cl)cc(CN(C)C)c4OC)CC3)c12` [Entry 377, 1-[5-chloro-3-[4-(3-ethyl-1H-pyrazolo[3,4-d]pyrimidin-4-yl)piperazin-1-yl]-2-(methyloxy)phenyl]-N,N-dimethylmethanamine]: the IC50 on AktK is at least 10 µM; against p70S6K it was 0.1 to 1 µM.

With `CCc1n[nH]c2ncnc(N3CCN(c4cc(Cl)cc(CNCCN(C)C)c4OC)CC3)c12` [Entry 378, N′-{[5-chloro-3-[4-(3-ethyl-1H-pyrazolo[3,4-d]pyrimidin-4-yl)piperazin-1-yl]-2-(methyloxy)phe-nyl]methyl}-N,N-dimethylethane-1,2-diamine], the results for the half-maximal inhibitory concentration (IC50) on AktK and against p70S6K were 1 to 10 µM and 0.1 to 1 µM, respectively.

Turning to `CCc1n[nH]c2ncnc(N3CCN(c4cccc(Cl)c4)C(CO)C3)c12` (stereo not drawn) [Entry 379, [1-(3-chlorophenyl)-4-(3-ethyl-1H-pyrazolo[3,4-d]pyrimidin-4-yl)piperazin-2-yl]methanol], the IC50 was 1 to 10 µM at AktK and under 0.1 µM against p70S6K.

Take `Cc1ccc(Cl)cc1N1CCN(c2ncnc3[nH]nc(-c4ccc(OCCCN(C)C)cc4)c23)CC1` [Entry 380, 3-[(4-{4-[4-(5-chloro-2-methylphenyl)piperazin-1-yl]-1H-pyrazolo[3,4-d]pyrimidin-3-yl}phenyl)oxy]-N,N-dimethylpropan-1-amine]: the IC50 on AktK and against p70S6K was 1 to 10 µM throughout.

Source of the values: US8076338B2, “Kinase modulators and methods of use” (Exelixis, Inc., priority 2004, dated 2011).
